Laboratory results: US20230332103A1, “Methods and Compositions for Generating Human Forebrain Neural Progenitor Cells and for Maturation Thereof to Parvalbumin+ Interneurons” (Trailhead Biosystems Inc., priority 2021, published 2023)
“Also recorded” adds a separate entry of the source.

Tests used:
[1] = test system: cells after termination of stage 4 treatment; assay: HD-DoE 8-factor experiment for stage 5 recipe (JQ1, Indolactam-V, Oleic acid, BDNF, IGF-1, 2-phospho-L-Ascorbic acid, Albumax, MK2206), optimized for PVALB; assay type: cell-based, human; settings: for factor contribution on expression of PVALB: important input for maximum expression of PVALB, FIG. 21; for impact on expression of PVALB: model maximized for PVALB / dynamic profile, FIG. 21 and 22
Excerpt: To further guide the differentiation of forebrain-committed neural stem cells to PVALB interneuron cells at stage 5, we performed a HD-DoE experiment for 3 days after termination of stage 4 treatment. At this time, we focused on maximum expression of PVALB that was expressed in Parvalbumin (+) interneurons and minimum expression of Somatostatin that is another type of interneurons. This 8-factor experiment included JQ1, Indolactam-V, Oleic acid, BDNF, IGF-1, 2-phospho-L-Ascorbic acid, Albumax, MK2206. […] Using dynamic profile analysis, we modified the model to achieve the maximum expression level of PVALB simultaneously and therefore 2-phospho-L-ascorbic acid, BDNF, IGF1 were included while MK2206, Albumax, and JQ1 are excluded (FIG. 22). Considering the model at different optimization settings for maximum differentiation of cells toward ventral forebrain, the recipe for stage 5 of differentiation included BDNF, IGF-1, 2-phospho-L-ascorbic acid from this HD-Doe experiment.

[2] = test system: stage 4 neural stem cells; assay: factor criticality analysis of stage 5 recipe; assay type: cell-based, human; settings: for effect on expression of somatostatin: FIG. 28; for contribution to expression of PVALB (Parvalbumin): FIG. 28-30
Procedure: To assess the impact of elimination of each validated factor, we again used dynamic profile analysis and compared the expression level of genes of interest in the absence of each finalized factor while others are present.
In the stage 5 recipe, each of seven finalized factors were removed while other factors were kept present and expression levels of PVALB and SST were assessed compared to the presence of all seven factors. […] 2-phospho-L-ascorbic acid, BDNF, IGF-1 were included in the stage 5 recipe (FIG. 28). […] Others were also found to increase the expression of somatostatin that was SST interneuron marker. So, they are excluded from the recipe and N2 was included in the stage 5 recipe (FIG. 29). […] Sodium pyruvate was included in the stage 5 recipe (FIG. 30).

[3] = test system: human pluripotent stem cells; assay: HD-DoE 12-factor experiment for stage 1 recipe, gene expression by quantitative PCR after 3 days; assay type: cell-based; settings: for factor contribution on expression of OTX2: model of maximum expression of OTX2
Excerpt: This example utilizes a method of High-Dimensional Design of Experiments (HD-DoE), as previously described in Bukys et al. (2020) […] 23:101346. The method employs computerized design geometries to simultaneously test multiple process inputs and offers mathematical modeling of a deep effector/response space. The method allows for finding combinatorial signaling inputs that control a complex process, such as during cell differentiation. It allows testing of multiple plausible critical process parameters, as such parameters impact output responses, such as gene expression. Because gene expression provides hallmark features of the phenotype of, for example, a human cell, the method can be applied to identify, and understand, which signaling pathways control cell fate. In the current example, the HD-DOE method was applied with the intent to find conditions for induction of […] neural progenitor-expressed genes, directly from the pluripotent stem cell state. To develop the recipe for each stage, the impact of agonists and antagonists of multiple signaling pathways (herein called effectors) on the expression of two sets of 53 pre-selected genes, after a 3-day treatment, has been tested and modeled. These effectors are small molecules or proteins that are commonly used during stepwise differentiation of stem cells to specific fates. Choice of the effectors were based on current literature on neural induction in forebrain region of developing brain and differentiation of stem cells to neural progenitors. To test the effectors, experiments with at least 8 factors were designed that can assess the response of cells to 48 or more different combinations of effectors in a range of concentrations. To analyze the models, we focused on expression of genes involved in development and patterning of the anterior neuroectoderm and forebrain including OTX2 (Hoch et al. (2015) Cell Reports 12:482-494), SIX3 (Lagutin et al. (2003) Genes & Development 17:368-379) and FEZF2 (Zhang et al. (2014) Development 141:4794-[…]). At later stages we focused on dorsoventral patterning of telencephalon and gene expressed in ventral forebrain including NKX2-1 and absence of PAX6 which is a dorsal forebrain marker (Stoykova et al. (2000) J. Neurosci. 20:8042-8050). The impact of each effector on gene expression level is defined by a parameter called factor contribution that is calculated for each effector during the modeling. To identify the recipe for stage 1 of differentiation, 96 different combinations of effectors generated using Design-of-Experiments compression through D-optimality were robotically prepared. The effector combinations were prepared in a basal media and were subsequently added to the cells, which were then allowed to differentiate. Three days later RNA extraction was performed, and gene expression was obtained using quantitative PCR analysis. […] Solutions within the tested space could then be explored to address desirability. Optimizing for maximal expression of SIX3 at 3300 and FEZF2 1355 expression values led to robust solutions. This model was derived from testing 12 effectors including AGN193109, LDN193189, CHIR99021, XAV939, IGF2, Purmorphamine, 4-oxo-RA, TTNPB, SR11237, FGF8, PD0325901 and […]. […] The model was also optimized for maximum expression of FEZF2 separately at 3576 expression value to find any additional factors that can boost expression of forebrain genes. […] To find the set of factors that have the potential to optimize all 3 genes in this experiment, a new assessment was done through dynamic profile analysis with focus on maximal expression of OTX2, FEZF2 and SIX3.

[4] = test system: human pluripotent stem cells; assay: additional HD-DoE experiment for stage 1 (forebrain differentiation from pluripotency), optimized for FEZF2; assay type: cell-based; settings: for impact on expression of FEZF2: dynamic profile, FIG. 6; for factor contribution on expression of FEZF2: positive impact, additional stage 1 experiment optimized for FEZF2, FIG. 5
Procedure: To identify the recipe for stage 1 of differentiation, 96 different combinations of effectors generated using Design-of-Experiments compression through D-optimality were robotically prepared. The effector combinations were prepared in a basal media and were subsequently added to the cells, which were then allowed to differentiate. Three days later RNA extraction was performed, and gene expression was obtained using quantitative PCR analysis. The data were normalized and modeled using partial least squares regression analysis to the effector design, resulting in the generation of gene-specific models, which after model tuning for maximal Q2 predictive power, provided explanation of the effectors ability to control the expression of individual genes, combinatorially, and individually. Solutions within the tested space could then be explored to address desirability.
To further enhance the conditions for forebrain differentiation from pluripotency, an additional HD-DoE experiment was performed. Additional gene regulatory models were obtained that were used for preparation of the differentiation protocol. The factors in this experiment included LDN193189, PD173074, BLU9931, Purmorphamine, SC79, MK2206, ZM336372, PD0325901, CHIR99021, XAV939, UCLA-GP130, Tofacitinib and GO6983. […] Dynamic profile analysis was also used to assess the interaction between the effectors.

[5] = test system: forebrain-committed neural stem cells (stage 1 neural stem cells); assay: HD-DoE 12-factor experiment for stage 2 recipe, optimized for NKX2-1; assay type: cell-based, human; settings: model maximized for NKX2-1 / dynamic profile, FIG. 7 and 8
Procedure: To further guide the differentiation of forebrain-committed neural stem cells to ventral forebrain neural stem cells at stage 2, a HD-DoE experiment was performed for 3 days after termination of stage 1 treatment. At this time, we focused on maximum expression of NKX2-1 that is expressed in ventral forebrain region and minimum expression of PAX6 that is expressed in dorsal forebrain region. This 12-factor experiment included LDN193189, BMP7, PD0325901, MK2206, A8301, XAV939, CHIR99021, Purmorphamine, SANT-1, AGN193109, TTNPB and GSI-XX.

[6] = test system: human pluripotent stem cells; assay: factor criticality analysis (dynamic profile analysis) of stage 1 recipe; assay type: cell-based; design: unit not given here; settings: other five factors present; for expression level of FEZF2 when the effector is removed: 2000 with all six factors; for expression level of SIX3 when the effector is removed: 3000 with all six factors; for expression level of OTX2 when the effector is removed: 5500 with all six factors
Procedure: (§1) To assess the impact of the elimination of each validated factor, dynamic profile analysis was used and compared the expression level of genes of interest in absence of each finalized factor while others are present.
In the stage 1 recipe, each of the six finalized factors were removed individually while the other five factors were present and expression levels of forebrain genes was assessed compared to the presence of all six factors together. The results are summarized in FIG. 11A-B. When LDN193189 was removed, expression levels of FEZF2, OTX2 and SIX3 were decreased drastically from 2000 to 1000, 5500 to 4000 and 3000 to 0, respectively. […] When Purmorphamine was removed, levels of FEZF2 and SIX3 were decreased to 1000 and below 3000, while levels of OTX2 increased to 6500.

[7] = test system: forebrain-committed neural stem cells (stage 1 neural stem cells); assay: factor criticality analysis (dynamic profile analysis) of stage 2 recipe; assay type: cell-based, human; settings: stage 2 recipe, other three factors present; for expression level of PAX6 in the absence of the effector: 0 with all four factors; for expression level of NKX2-2 in the absence of the effector: 100 with all four factors; for expression level of NKX2-1 in the absence of the effector: 5000 with all four factors
Procedure: as §1
In the stage 2 recipe, each of the four finalized factors were removed while the other three factors remained present and expression levels of NKX2-1, PAX6 and NKX2-2 were assessed compared to presence of all four factors. The results are summarized in FIG. 13A-B. Absence of PD0325901 reduced the levels of NKX2-1 and NKX2-2 while increasing PAX6 from 5000 to 3200, 100 to 0 and 0 to 5000, respectively. […] Removing XAV939 reduced the levels of NKX2-1 from 5000 to 3000, while increasing both PAX6 and NKX2-2 to 10000 and 200, respectively. Another observation was the interaction between XAV939 and Purmorphamine. In the absence of XAV939, the impact of Purmorphamine on NKX2-1 became negative and, as it is shown in interaction plot of FIG. 14, the level of NKX2-1 is higher when both factors are present.

O=C1O[C@H]([C@@H](O)CO)C(O)=C1OP(=O)(O)O [2-phospho-L-ascorbic acid]
factor contribution on expression of PVALB [1]: 15.04
impact on expression of PVALB [1]: increase its expression level
impact on expression of PVALB ([1]; listed as 2-phospho-L-Ascorbic acid): positive impact
effect on expression of somatostatin [2]: did not change
contribution to expression of PVALB (Parvalbumin) [2]: positive contribution

CC(C)[C@H]1C(=O)N[C@H](CO)Cc2c[nH]c3cccc(c23)N1C [Indolactam-V]
impact on expression of PVALB [1]: increase its expression level; also recorded: positive impact

CCCCCCCC/C=C\CCCCCCCC(=O)OC[C@@H](O)COP(=O)(O)O [O-LPA, 1-Oleoyl lysophosphatidic acid]
contribution to expression of GAD1 ([2]; FIG. 31): contribute to the expression
contribution to expression of LHX6 ([2]; FIG. 31): contribute to the expression

CCCCCCCC/C=C\CCCCCCCC(=O)O [Oleic acid]
impact on expression of PVALB [1]: increase its expression level; also recorded: positive impact

O=C(NOC[C@H](O)CO)c1ccc(F)c(F)c1Nc1ccc(I)cc1F [PD0325901]
factor contribution on expression of OTX2 ([3]; positive impact): low
factor contribution on expression of FEZF2 ([3]; positive impact, model optimized for maximum expression of FEZF2): 10
impact on expression of FEZF2 [4]: positive impact
factor contribution on expression of FEZF2 [4]: 15
impact on expression of NKX2-1 [5]: increase its expression level; also recorded: Positive impact
expression level of FEZF2 when the effector is removed [6]: drop
expression level of SIX3 when the effector is removed [6]: did not have a significant impact
expression level of OTX2 when the effector is removed [6]: did not have a significant impact
expression level of PAX6 in the absence of the effector [7]: 5000
expression level of NKX2-2 in the absence of the effector [7]: 0
expression level of NKX2-1 in the absence of the effector [7]: 3200

Oc1nc(-c2ccc(C(F)(F)F)cc2)nc2c1CSCC2 [XAV939]
impact on expression of OTX2 ([3]; dynamic profile analysis, FIG. 4): positive impact
factor contribution on expression of OTX2 ([3]; positive impact): low
factor contribution on expression of SIX3 ([3]; positive impact, model optimized for maximal expression of SIX3, 3-day treatment): 5
impact on expression of FEZF2 [4]: positive impact
factor contribution on expression of FEZF2 [4]: 12
impact on expression of NKX2-1 [5]: increase its expression level; also recorded: Positive impact
expression level of FEZF2 when the effector is removed [6]: 1700
expression level of SIX3 when the effector is removed [6]: 1000
expression level of OTX2 when the effector is removed [6]: 5000
expression level of PAX6 in the absence of the effector [7]: 10000
expression level of NKX2-2 in the absence of the effector [7]: 200
expression level of NKX2-1 in the absence of the effector [7]: 3000

B1: BDNF: brain-derived neurotrophic factor, ligand of BDNFR signaling pathway (protein, UniProt P23560 19-247, looked up)
Neurotrophic factor BDNF …: APMKEANIRGQGGLAYPGVRTHGTLESVNGPKAGSRGLTSLADTFEHVIEELLDEDQKVRPNEENNKDADLYTSRVMLSSQVPLEPPLLFLLEEYKNYLDAANMSMRVRRHSDPARRGELSVCDSISEWVTAADKKTAVDMSGGTVTVLEKVPVSKGQLKQYFYETKCNPMGYTKEGCRGIDKRHWNSQCRTTQSYVRALTMDSKKRIGWRFIRIDTSCVCTLTIKRGR
factor contribution on expression of PVALB [1]: 14.6
impact on expression of PVALB [1]: increase its expression level; also recorded: positive impact
effect on expression of somatostatin [2]: did not change
contribution to expression of PVALB (Parvalbumin) [2]: positive contribution
